Experimental data: patent publication US20210023012A1, “Solid Pharmaceutical Compositions for Treating HCV” (AbbVie Inc., priority 2019, published 2021)

Experiments:
Format in all cases: in vitro ADME
BCRP = biological target: T1, BCRP (Homo sapiens, UniProt Q9UNQ0); experiment: Substrate of transporter BCRP
T1 sequence (Q9UNQ0 1-655): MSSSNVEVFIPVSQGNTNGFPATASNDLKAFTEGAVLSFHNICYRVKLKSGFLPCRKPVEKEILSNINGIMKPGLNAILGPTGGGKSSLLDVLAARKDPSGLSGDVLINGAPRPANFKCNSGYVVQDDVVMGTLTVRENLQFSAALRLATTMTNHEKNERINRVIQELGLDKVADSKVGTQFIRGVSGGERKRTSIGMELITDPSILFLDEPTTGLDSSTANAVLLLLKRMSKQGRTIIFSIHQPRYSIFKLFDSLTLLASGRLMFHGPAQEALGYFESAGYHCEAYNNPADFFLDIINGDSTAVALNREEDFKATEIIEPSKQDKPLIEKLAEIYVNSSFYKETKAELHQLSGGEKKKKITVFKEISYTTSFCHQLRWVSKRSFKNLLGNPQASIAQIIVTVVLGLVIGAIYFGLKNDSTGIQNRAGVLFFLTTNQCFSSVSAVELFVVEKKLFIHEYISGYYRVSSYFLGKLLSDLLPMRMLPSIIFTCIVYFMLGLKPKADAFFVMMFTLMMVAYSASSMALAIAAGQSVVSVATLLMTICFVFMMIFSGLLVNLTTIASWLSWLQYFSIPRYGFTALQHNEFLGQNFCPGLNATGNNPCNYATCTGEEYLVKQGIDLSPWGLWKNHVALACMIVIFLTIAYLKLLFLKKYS

P-gp = P-gp (Homo sapiens, UniProt P08183); experiment: Substrate of transporter P-gp
OATP1B1/3 = experiment: Substrate of transporter OATP1B1/3

P-gp, sequence (P08183 whole entry): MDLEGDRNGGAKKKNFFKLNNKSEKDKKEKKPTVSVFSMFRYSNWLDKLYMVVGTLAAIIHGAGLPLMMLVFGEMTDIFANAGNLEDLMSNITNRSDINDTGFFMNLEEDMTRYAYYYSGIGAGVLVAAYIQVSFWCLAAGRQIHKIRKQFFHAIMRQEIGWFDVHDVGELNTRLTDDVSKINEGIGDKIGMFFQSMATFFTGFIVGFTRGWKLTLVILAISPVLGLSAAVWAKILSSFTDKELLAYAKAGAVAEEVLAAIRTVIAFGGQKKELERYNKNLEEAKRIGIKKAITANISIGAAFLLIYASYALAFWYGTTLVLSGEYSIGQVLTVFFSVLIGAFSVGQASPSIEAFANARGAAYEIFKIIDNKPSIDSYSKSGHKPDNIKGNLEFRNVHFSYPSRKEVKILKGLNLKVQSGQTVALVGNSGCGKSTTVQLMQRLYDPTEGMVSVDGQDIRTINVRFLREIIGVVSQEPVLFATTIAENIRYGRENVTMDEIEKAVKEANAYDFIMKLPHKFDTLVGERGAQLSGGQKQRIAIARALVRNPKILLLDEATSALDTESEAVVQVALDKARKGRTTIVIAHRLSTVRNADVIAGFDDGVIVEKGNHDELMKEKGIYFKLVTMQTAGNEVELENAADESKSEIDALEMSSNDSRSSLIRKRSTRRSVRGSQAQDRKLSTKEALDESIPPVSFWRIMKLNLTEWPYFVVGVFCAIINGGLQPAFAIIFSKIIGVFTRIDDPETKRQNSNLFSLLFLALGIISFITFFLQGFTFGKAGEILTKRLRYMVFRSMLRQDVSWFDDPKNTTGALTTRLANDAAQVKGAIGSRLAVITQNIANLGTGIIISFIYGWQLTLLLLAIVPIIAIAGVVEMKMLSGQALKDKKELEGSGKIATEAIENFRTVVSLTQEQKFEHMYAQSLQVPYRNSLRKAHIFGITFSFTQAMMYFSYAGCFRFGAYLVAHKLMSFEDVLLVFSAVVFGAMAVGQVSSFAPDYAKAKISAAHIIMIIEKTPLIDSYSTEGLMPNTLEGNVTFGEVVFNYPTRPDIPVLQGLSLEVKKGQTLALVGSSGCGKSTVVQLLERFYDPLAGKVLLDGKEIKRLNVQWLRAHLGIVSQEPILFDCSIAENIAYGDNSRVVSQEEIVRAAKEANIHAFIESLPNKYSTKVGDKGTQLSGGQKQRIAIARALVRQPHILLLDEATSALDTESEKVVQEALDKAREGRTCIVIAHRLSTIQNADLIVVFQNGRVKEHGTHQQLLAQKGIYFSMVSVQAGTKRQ

Row | Structure (SMILES) | Substrate of transporter (BCRP) | Substrate of transporter (P-gp) | Substrate of transporter (OATP1B1/3)
1 | COC(=O)N[C@H](C(=O)N1CCC[C@H]1c1nc2cc([C@H]3CC[C@H](c4cc5nc([C@@H]6CCCN6C(=O)[C@@H](NC(=O)OC)[C@@H](C)OC)[nH]c5cc4F)N3c3cc(F)c(N4CCC(c5ccc(F)cc5)CC4)c(F)c3)c(F)cc2[nH]1)[C@@H](C)OC [Compound 2] | not excluded | – | –
2 | CC(C)(C)[C@@H]1NC(=O)O[C@@H]2CCC[C@H]2OC/C=C/C(F)(F)c2nc3ccccc3nc2O[C@@H]2C[C@@H](C(=O)N[C@]3(C(=O)NS(=O)(=O)C4(C)CC4)C[C@H]3C(F)F)N(C2)C1=O [Compound 1] | – | P-gp, | OATP1B1/3
